Results taken from patent US8569379B2 (Teva Pharmaceutical Industries Ltd., priority 2010, dated 2013).
Like-named read-outs stand apart in the source and are kept apart here.

Legend:
[1] = test system: alpha-synuclein over-expressing (mutants) mice (Thy1-aSyn)
From the text: (§1) Transgenic mice overexpressing alpha-synuclein under the Thy1 promoter (Thy1-aSyn) have high levels of alpha-synuclein expression throughout the brain but no loss of nigrostriatal dopamine neurons up to 8 months. […] Overexpression of alpha-synuclein is sufficient to cause olfactory deficits in mice similar to that observed in patients with PD (2).
Odor detection threshold is the lowest concentration (dilution 10^−8; 10^−6; 10^−4 in the water) at which mice are able to detect a novel odor. Upon detection of a novel odor, mice will spend more time sniffing it. The detection threshold was measured as percentage of time sniffing novel odor out of total time of sniffing.

[2] = test system: Wild type (WT) mice
From the text: (§2) The underlying principle was that if mice would spend less time sniffing the odor at T2 (second exposure to the odor) their short term olfactory memory is intact. The testing parameter was percentage of time of sniffing at T2, calculated as time of sniffing at T2 out of total time of sniffing at T1 (first exposure) & T2.

[3] = test system: alpha-synuclein over-expressing (mutants) mice (Thy1-aSyn); conditions: α-syn mutants; in particular at the 1.5 min interval
From the text: as §1, §2

[4] = test system: Wild type (WT) mice; conditions: strong intensity
From the text: (§3) The experiment was further subdivided into two levels of odor intensity:
(§4) Light intensity: two days of odor impregnation
(§5) Strong intensity: seven days of odor impregnation
(§6) The testing parameter was percentage of time of sniffing novel odor out of total time of sniffing.

[5] = test system: alpha-synuclein over-expressing (mutants) mice (Thy1-aSyn); remark: listed apart in the source
From the text: as §1, §3, §4, §5, §6

[6] = test system: Wild type (WT) mice; conditions: WT mice receiving rasagiline, group mean, n = 18
From the text: In this experiment, lemon odor served as a familiar odor (F), and lime—as a novel odor (N) (FIG. 4A). Mice capable of discriminating between the odors will spend more time sniffing the new odor. The testing parameter was percentage of time of sniffing novel odor out of total time of sniffing.

[7] = test system: alpha-synuclein over-expressing (mutants) mice (Thy1-aSyn); remark: listed apart in the source
From the text: Transgenic mice overexpressing alpha-synuclein under the Thy1 promoter (Thy1-aSyn) have high levels of alpha-synuclein expression throughout the brain but no loss of nigrostriatal dopamine neurons up to 8 months. […] Overexpression of alpha-synuclein is sufficient to cause olfactory deficits in mice similar to that observed in patients with PD (2). […] In this experiment, lemon odor served as a familiar odor (F), and lime—as a novel odor (N) (FIG. 4A). Mice capable of discriminating between the odors will spend more time sniffing the new odor. The testing parameter was percentage of time of sniffing novel odor out of total time of sniffing.

[8] = test system: Wild type (WT) mice; conditions: WT mice receiving rasagiline; group mean, n = 18
From the text: (§7) The time periods that mice spent sniffing lemon and lime were compared. The testing parameters were percentage of time of sniffing lemon out of total time of sniffing and percentage of time of sniffing lime out of total time of sniffing.

[9] = test system: alpha-synuclein over-expressing (mutants) mice (Thy1-aSyn); conditions: α-syn mutants receiving rasagiline; group mean, n = 19
From the text: as §1, §7

[10] = test system: Wild type (WT) mice; conditions: for Time of exploration: novel object; for Time of exploration / % Time exploring novel object: WT mice receiving rasagiline, individual mice, Mean row = group mean (n = 9); for % Time exploring novel object: out of total time of the trial
From the text: (§8) The testing parameters were percentage of time exploring the novel object out of total time of the trial.

[11] = test system: alpha-synuclein over-expressing (mutants) mice (Thy1-aSyn); remark: listed apart in the source
From the text: as §1, §8

[12] = test system: Wild type (WT) mice; conditions: WT mice receiving rasagiline; group mean, n = 9
From the text: The objective was to determine whether the odor discrimination deficit was specific to the olfactory function (FIG. 7A).
The testing parameters was percentage of time exploring the novel object/odor out of total time of exploration.

[13] = test system: alpha-synuclein over-expressing (mutants) mice (Thy1-aSyn); remark: listed apart in the source
From the text: as §1, with “(2). […] The objective was to determine whether the odor discrimination deficit was specific to the olfactory function (FIG. 7A). The testing parameters was percentage of time exploring the novel object/odor out of total time of exploration.” for “(2).”

[14] = test system: transgenic mouse models for the study of olfactory loss
From the text: (Lane et al., “Development of transgenic mouse models for the study of human olfactory dysfunction”, Am J. Rhinol., 2005, May-June; 19(3):229-35.)

[15] = strong social odors, α-syn mutants receiving rasagiline, group mean, n = 20
[16] = non-social odors, N = lime (novel)
[17] = non-social odors, N = lime (novel), α-syn mutants receiving rasagiline, group mean, n = 20
[18] = α-syn mutants receiving rasagiline, group mean, n = 9

C#CCN[C@@H]1CCc2ccccc21 [Rasagiline, R(+)-N-propargyl-1-aminoindan]
odor threshold (lowest odor dilution detected) ([1]; α-syn mutants with rasagiline, untreated mutants 10^−4, dilution in water): 10^6 | odor detection ability ([1]; α-syn mutants, odor concentration 10^−6): improved the odor detection ability of α-syn mutants | short-term olfactory memory compared to WT-water ([2]; ITI of 2 min): reduced short-term olfactory memory compared to WT-water | effect on short term olfactory memory ([2]; in particular at the 1.5 min interval): positive effect on short term olfactory memory | effect on short term olfactory memory [3]: positive effect on short term olfactory memory | discrimination of strong social odor [4]: improves discrimination of strong social odor | Time Sniffing F [5, 15]: 3.1 | Total time sniffing [5, 15]: 12.4 | discrimination of light social odor ([5]; α-syn mutants, light intensity): improves discrimination of light social odor | discrimination of strong social odor ([5]; α-syn mutants, strong intensity): improves discrimination of strong social odor | Total time sniffing ([6]; non-social odors lemon/lime): 42.5 | Time Sniffing F ([6]; non-social odors, F = lemon (familiar)): 11.9 | % time sniffing N [6, 16]: 72.1% | Time Sniffing N [6, 16]: 30.6 | Total time sniffing ([7]; non-social odors lemon/lime, α-syn mutants receiving rasagiline, group mean, n = 20): 14.8 | Time Sniffing F ([7]; non-social odors, F = lemon (familiar), α-syn mutants receiving rasagiline, group mean, n = 20): 3.7 | % time sniffing N [7, 17]: 70.2% | Time Sniffing N [7, 17]: 11.2 | discrimination of two close non-social odors ([7]; α-syn mutant mice, lemon (familiar) vs lime (novel)): improves discrimination of two close non-social odors | % Time sniffing Lemon [8]: 52.9% | % Time sniffing Lime [8]: 47.1% | Time of sniffing (s) Lemon [8]: 25.9 s | Time of sniffing (s) Lime [8]: 23.3 s | Time of sniffing (s) Total [8]: 49.2 s | % Time sniffing Lime [9]: 52.6% | Time of sniffing (s) Lemon [9]: 6.1 s | Time of sniffing (s) Lime [9]: 8.7 s | Time of sniffing (s) Total [9]: 14.9 s | effect on novel object exploration ([10]; WT mice): no effect on novel object exploration | Time of exploration ([10]; listed as Rasagilina): 100.0 s | Time of exploration ([10]; listed as Rasagilins): 115.1 s | % Time exploring novel object ([10]; listed as Rasagilina): 33.3% | % Time exploring novel object ([10]; listed as Rasagilins): 38.4% | Time of exploration ([11]; novel object, α-syn mutants receiving rasagiline, group mean, n = 11): 79.3 s | % Time exploring novel object ([11]; out of total time of the trial, α-syn mutants receiving rasagiline, group mean, n = 11): 26.4% | effect on novel object exploration ([11]; α-syn mutants): no effect on novel object exploration | % Time exploring novel object [12]: 96.2% | Time of Exploration (s) Familiar object [12]: 3.0 s | Time of Exploration (s) Novel object [12]: 85.0 s | Time of Exploration (s) Total [12]: 88.0 s | novel object/odor discrimination ability ([13]; α-syn mutants): improves the discrimination ability of the mutants to substantially WT levels | % Time exploring novel object [13, 18]: 92.2% | Time of Exploration (s) Familiar object [13, 18]: 3.6 s | Time of Exploration (s) Novel object [13, 18]: 48.7 s | Time of Exploration (s) Total [13, 18]: 52.4 s | treating the symptoms of olfactory dysfunction ([14]; each of two transgenic mouse models): effective in treating the symptoms of olfactory dysfunction | functional decline ([14]; transgenic mouse models): effective in reducing the functional decline | rate of progression of olfactory dysfunction ([14]; transgenic mouse models): effective in reducing the rate of progression of olfactory dysfunction
